Results published in a melting point compilation (Tetko et al.; mined from patent text by program, amines drawn as free bases though some values may be those of a salt).

Compound	melting point [°C]
O=C1c2c(c(=O)n3nc(-c4ccccc4)cc3n2CC(=NO)c2ccccc2)CN1C1CCCCC1	> 280
C(=C1CN2CCC1CC2)c1ccc(-c2ccccc2)cc1	107
COc1ccc(C(O)c2sccc2C=O)cc1OC (stereo not given)	90 to 91
C=CCNc1nc(NC(=O)Nc2ccccc2OC)nc(N(CCC(=O)O)Cc2ccc(Cl)c(Cl)c2)n1	201
CC(=O)c1cc2c(cn1)[nH]c1ccccc12	174 to 175
COCCOc1cc(N)c(Cl)cc1C(=O)NCC12CCCN(CCC1)C2	154 to 156
CC(=O)OC1CSC(Oc2ccc(-c3cccnc3)cc2)C(OC(C)=O)C1OC(C)=O (stereo not given)	150
CCCc1c(OCCCOc2ccc(C(=O)CCC(=O)O)c(Cl)c2Cl)ccc(C(C)=O)c1O	119 to 123
N#CC(C#N)C(=O)c1ccc2ccccc2c1	121
CSCCN(c1ccc(Cl)cc1[N+](=O)[O-])S(=O)(=O)c1ccc(C)cc1	94.5 to 95.5
Nc1cccc(-c2ccc(CCN3CC4C(C3)C4NC(=O)Cc3ccc(F)cc3)cc2)n1 (stereo not given)	161 to 163
COC(=O)C(=O)c1ccc(OCCOc2ccc3ccccc3c2)cc1Cl	123 to 125
CC(C)c1c(C(=O)c2cccnc2)c2ccccc2n1C	114
N#CCCNC(=O)c1cccc(-c2ccc3c(c2)N(Cc2cccc(Cl)c2Cl)CC3)c1	160 to 161
CC(C)(C)OC(=O)N1CCC(C(=O)c2nc3ccccc3[nH]2)CC1	226 to 228
O=C(Oc1ccccc1)n1c(C(F)(F)F)nc2c([N+](=O)[O-])cc(C(F)(F)F)cc21	100 to 103
O=C1C(O)OCN1c1ccc(Cl)c(Br)c1 (stereo not given)	139 to 140
O=c1c2ccccc2ccc2ccc(SC(F)(F)F)cc12	87 to 88
CC1=Nc2ccccc2C=C(c2ccccc2)N1C	144 to 145
COc1cc(OS(C)(=O)=O)ccc1C1=NC2=NC=NC(=O)C2=N1	288 to 291
O=C1N(Cc2ccc(C(F)(F)F)o2)c2ccccc2C12COc1cc(OC(F)(F)F)ccc12 (stereo not given)	78 to 80
CCOc1cn(C)cc(-c2cccc(C(F)(F)F)c2)c1=S	153 to 155
CC12CC(N3CCC4(CC3)OCCO4)C(O)CC1CCC1C2CCC2(C)C(O)C(N3CCCC3)CC12 (stereo not given)	184 to 187
CCN(c1cccc2cc(C3=NCCS3)[nH]c12)S(=O)(=O)c1cccs1	206 to 207
Nc1ccc(S(=O)(=O)Nc2ccc(Cl)c3cc[nH]c23)cn1	204 to 206

Compound	melting point [°C]
O=C(c1ccccc1)c1ncc2n1CCC2C(=O)O (stereo not given)	232 to 233
Cc1oc(-c2ccccc2)nc1COc1ccc(CCc2oc(-c3ccccc3)nc2CC(=O)O)cc1	180 to 181
COc1ccc(S(=O)(=O)C(C)(Cc2ccccc2Br)C(=O)NO)cc1 (stereo not given)	93 to 96
COc1ccc(C2=CCN(Cc3n[nH]c4c(F)c(F)ccc34)CC2)cc1	195 to 197
CC(=O)NC[C@H]1CN(c2ccc(-n3nccc3-c3ccc(Br)cn3)c(F)c2)C(=O)O1	92.7 to 95.4
CCc1cc(O)n2ccnc2n1	93 to 94
CC(=O)NCC1CN=C(c2cc3cccc(N(C)S(=O)(=O)c4cccs4)c3[nH]2)S1 (stereo not given)	212 to 213
OCCCN1CCC(c2ccccc2)(c2ccccc2)CC1	97
CC(C)(C)NS(=O)(=O)c1cc(C(=O)O)ccc1C(=O)O	210 to 213
CCc1oc(C)cc(=O)c1O	157 to 159
FC(F)Oc1cc(-n2nc3c(c2Cl)CCCC3)c(Cl)cc1Cl	121 to 123
NC(=O)c1c(Cl)c(-c2ccccc2)n2c1CN(C(=O)Nc1cccc(C(=O)O)c1)CC2	263 to 265
CC(CC(=O)NCc1ccccc1)n1c(C(F)(F)F)nc2cc(F)c(-n3c(=O)cc(C(F)(F)F)n(C)c3=O)cc21 (stereo not given)	191 to 193
COC(=O)CC(=O)c1cc(F)c(OC)c(F)c1	64 to 67
Cc1oc(-c2ccc(C(F)(F)F)cc2)nc1COc1cccc(Cn2oc(=O)[nH]c2=O)c1	142 to 143
COc1cc(Cc2cnc(N)nc2N)c2c(c1OC)OC(C)CC2=O (stereo not given)	128 to 132
CCc1c(Cl)cnn(C(C)(C)C)c1=O	61.5 to 62.5
CC(C)(C)COc1ccc(NC(=O)c2cc3ccccc3s2)cc1C#N	227
O=C1CC(c2cccc(Cl)c2)c2cc(C(=O)c3ccc(Cl)cc3)ccc2N1 (stereo not given)	195
CN(C)Cc1ccc2c(c1)c(C1CCN(CCN3CCNC3=O)CC1)cn2-c1ccc(F)cc1	166 to 174
CC(C)c1ccc(C(=O)NC(C)c2sccc2Br)cc1 (stereo not given)	133
NS(=O)(=O)c1ccc(-c2c(-c3ccccc3)noc2COCC(F)(F)C(F)(F)C(F)(F)CO)cc1	50 to 51
CCOC(=O)Cc1c(Cl)cnc2c(NC(=O)c3c(Cl)cccc3Cl)cccc12	161
CCCC/C(=C\C=C\C(=O)Oc1ccc([N+](=O)[O-])cc1)c1cccc(OC)c1	81.5 to 83
COc1ccc([C@H]2[C@@H](c3ccccc3)C2(Cl)Cl)cc1 (relative stereo)	59 to 60

Compound	melting point [°C]
O=C(OCc1ccccc1)N1CCc2c(sc3nc(CCl)c(Cl)c(-c4ccc(OCC(F)(F)F)cc4)c23)C1	166 to 167
CNC(=O)N1N=C(c2ccc(N)cc2)c2ccc(Cl)cc2CC1C (stereo not given)	134 to 136
Cc1cc(-n2nc(C(F)F)cc2-c2ccc(S(C)(=O)=O)cc2)ccc1Br	141 to 142
Cc1cccc(C(=O)N[C@@H](CC(C)C)C(=O)N[C@@H](C(C)C)[C@@H](O)c2c(-c3ccccc3)c2=O)n1	98 to 100
Nn1c(C2CC2)n[nH]c1=O	183
O=C(CNC(=O)C1CCCCC1)c1ccccc1	114 to 115
N#CN1CCSC1=NC1CCc2ccccc21 (stereo not given)	90 to 91
Clc1ccccc1C(Oc1ccccc1)C1CNCCO1 (stereo not given)	80 to 102
N#CC=Cc1ccc(C=O)cc1	122
CC(=O)NCCc1ccc(CCC(=O)O)cc1	132 to 133
CC(=O)OCc1cc(C)cc(Oc2nc(Cl)nc(Cl)c2C(C)C)c1	76 to 77
Nc1cc2n(n1)CCOC2	74 to 76
COC(=O)c1ccc(-n2ccc(C)n2)cc1C(F)(F)F	59 to 61
COc1ccc(C(=O)CBr)cc1C12CC3CC(CC(C3)C1)C2	140 to 141
COc1ccccc1-c1[nH]c2cccc3c2c1CCNC3=O	254 to 255
OC1CC=CCC1N1CCN(C2CC=CCC2O)CC1 (stereo not given)	207 to 209
CS(=O)(=O)c1ccc(/C=C/c2cc(/C=C/c3ccc4cc[nH]c4c3)n[nH]2)cc1	260 to 268
COc1ccccc1CP(CCP(Cc1ccccc1OC)c1ccccc1)c1ccccc1 (stereo not given)	102 to 104
O=C1CN2CCOC2(c2ccccc2F)c2cc(I)ccc2N1CCO (stereo not given)	160 to 165
COC1(c2cc(F)cc(S(=O)(=O)c3ccc4c(c3)CC/C4=N\O)c2)CCOCC1	225 to 226
COc1ccc(C=Cc2nc3c(c(=O)n(C)c(=O)n3C)n2C)cc1OC	230 to 232
O=C(OC1COCCC1=O)c1ccccc1 (stereo not given)	76 to 77
CCC1(CC)C(=O)N(C(C)(C)CO)CC(C)(C)N1OC(C)(C)C#N	58 to 66
CCN(CC)CCOc1ccc(Nc2ncc3c(n2)N(C)C(=O)N(c2c(Cl)cc(Cl)cc2Cl)C3)cc1	142
CCOC(=O)/C=C/c1ccc(Cn2ccnc2)c(Cl)c1	112 to 114

Compound	melting point [°C]
COC(=O)CNC(=O)c1ccc(-c2ccccc2)cc1	127 to 128
CCN(CC)CCOCCc1ccc2sc(C(N)=O)cc2c1	82 to 84
CC(C)OC(=O)NC(C(=O)N1CCCC1C(=O)O)C(C)(C)SC(C)C (stereo not given)	128 to 130
CC(C)(C)OC(=O)NCC1CN(c2cccc(Cl)n2)C1	124 to 126
COCCCNc1nc(N)c(Cl)c(Cl)n1	114
COC(=O)c1ccc(O)c(C(C)(C)C)c1	144 to 145
Cc1ccc(S(=O)(=O)N(C)SN(c2cc(C(F)(F)F)ccc2Cl)c2c([N+](=O)[O-])cc([N+](=O)[O-])cc2C(F)(F)F)cc1	142 to 144
COC(=O)CC(=O)/C=C/c1c(-c2ccc(F)cc2OC)n(C(C)C)c(=O)c2ccccc12	164 to 166
CCN1Cc2ccccc2C(=O)c2cc(CC(=O)OC)ccc21	116 to 119
CC(n1ncnn1)C(F)(c1ccc(OC(F)(F)F)cc1)c1ccc(OC(F)(F)F)cc1 (stereo not given)	68 to 70
CNS(=O)(=O)c1cc(C(=O)NNC(=O)c2occ(-c3ccccc3)c2-c2ccccc2)ccc1O	119 to 120
CCOCc1nc2c(N)nc3cc(OCCCCCCNC(=S)NC(C)C)ccc3c2n1CC(C)(C)NC(C)=O	110 to 120
Cc1ccc2c(=O)n3ccsc3nc2c1	174 to 178
Cc1ccc(-n2ncc(C(=O)O)n2)cc1	209 to 211
C[C@H](NC(=O)C(SC(=O)c1ccccc1)SC(=O)c1ccccc1)C(=O)O	161 to 162
OC1CSC(Oc2cnccc2C(F)(F)F)C(O)C1O (stereo not given)	191
O=C(NC1CCN(CCCc2ccccc2)C1)C12CC3CC(CC(C3)C1)C2 (stereo not given)	118 to 120
Fc1ccc(-n2nc(N3CCNCC3)c3ccccc32)cc1	85 to 87
CCc1nc2ccccc2c(C(=O)OCC(=O)OC(C)(C)C)c1Oc1ccc(-c2ccccc2C#N)cc1	83 to 85
Cc1cc(-n2ccnc2)c2cccc(OCc3c(Cl)ccc(S(=O)(=O)N4CCC[C@H]4C(=O)N4CCOCC4)c3Cl)c2n1	50
O=[N+]([O-])c1ccc(Oc2ccccc2)c(Cl)c1Oc1ccccc1	106 to 107
O=C(O)c1cc2c(n(CC3CCCCC3)c1=O)CCCCCC2	162 to 163
Cc1cc(COc2ccc(S(=O)(=O)NC[C@@H](C(=O)NO)N3CCN(C(=O)OCc4ccccc4)CC3)cc2)c2ccccc2n1	162
C#CCN1Cc2cccnc2N(c2cccc(Br)c2)C1=O	118 to 119
COC(=O)c1ccc([N+](=O)[O-])c(OCC(N)=O)c1	138 to 139
